Test results taken from publication PMC7669869, “AdipoR1/AdipoR2 dual agonist recovers nonalcoholic steatohepatitis and related fibrosis via endoplasmic reticulum-mitochondria axis” (Nature Communications, 2020).
Non-standard residues stand in square brackets, D forms with d. Residues, ends and D or L forms follow the SMILES beside them. Nva = CCC[C@H](N)C(=O)O

How the values were obtained:
[1] = tested on: liver gene expression of CCl4 induced liver fibrosis mice; test: CCl4 mice: liver RNAseq gene expression analysis; assay type: in vivo, mouse; conditions: CCl4 + JT003 group
Experimental: Male mice liver fibrosis was induced by intraperitoneal injection of 20% CCl4 (Sigma, USA) diluted in corn oil (Aladdin, China) every 3 days for 6 weeks (n = 6; 5 ml kg^−1 body weight). Mice injected with equivalent volume of corn oil serves as control group (n = 6). Liver fibrosis mice treated with JT003 for 3 weeks were used to evaluated the pharmacological effects (n = 6; 500 μg kg^−1; daily intraperitoneal injection).
The positive area of all stained liver slices was quantified by ImageJ (https://imagej.nih.gov/ij/). All data in this study were shown as the mean ± SEM (Standard Error). Student’s two-tailed t test was used to compare the mean of two groups of samples. All statistical analyses were performed with GraphPad Prism software (https://www.graphpad.com/). Significance was considered when p < 0.05. In RNAseq gene expression analysis, false discovery rate <0.01, q value <0.001. The confidence level was 95%.

HFD induced NASH mice = test: HFD mice: serum and liver biochemical assays (ALT, FFA, LDL-C, hepatic TG, glycogen); assay type: in vivo, mouse
Experimental: Male C57BL/6J mice of 6–8 weeks of age (20–24 g) were used in these experiments including the NAFLD model and liver fibrosis model. The mice were purchased from Guangdong Medical Laboratory Animal Center and housed in standard isolator cages and maintained on a room temperature of 25 °C and a 12 h:12 h light/dark cycle. At the end of the experiments, mice were fasted 8 h prior to sacrifice. Liver tissue and/or epididymal adipose tissue were flash frozen in liquid nitrogen (with or without RNAlater (TransGen Biotech, China)) and stored at −80 °C for future use, or fixed in 10% paraformaldehyde for histological assays. Blood samples were obtained from the posterior venous plexus of the eyes of anesthetized mice, Blood was separated by centrifugation at 1000g for 15 min Serum was then stored at −80 °C. The ethical approval has been obtained from Animal Care and Use Committee of the Sun Yat-sen University. All animals were maintained in pathogen-free conditions and cared for in accordance with policies and certification of the Association for Assessment and Accreditation of Laboratory Animal Care International (AAALAC International).
The NASH model was conducted with feeding a HFD for 16 weeks combine with a MCD diet (Methionine/Choline Deficient Diet, Medicience, China) in the last 4 weeks. […]
The levels of ALT, AST, TC and TG in serum were determined using certain commercial assay kits (Nanjing Jiancheng Bioengineering Institute, China). Fasting adiponectin and insulin were quantified in plasma samples using corresponding commercially available Elisa kits (Cloud-Clone Crop, USA).
The levels of TG and HYP in liver tissue were detected with certain commercial assay kit (Nanjing Jiancheng Bioengineering Institute, China). […] The cryostat-cut slices were stained with freshly prepared Oil Red O working solution for 7 min Two independent experimenters who were blinded to the treatment evaluated the staining slides and analyzed the score for steatosis, glucogen accumulation and collagen proliferation area.

Structure (SMILES): CCC[C@H](NC(=O)[C@@H]1CCCN1)C(=O)N[C@@H](CC(C)C)C(=O)N[C@@H](Cc1ccc(O)cc1)C(=O)N[C@@H](Cc1ccc(O)cc1)C(=O)N[C@@H](Cc1ccccc1)C(=O)N[C@@H](C)C(N)=O [JT003] (H-P[Nva]LYYFA-NH2)
- Akr1c18 liver RNAseq expression ([1]; Figure 6c): 0.1038
- Bco1 liver RNAseq expression ([1]; Figure 6c): 0.5514
- Brca1 liver RNAseq expression ([1]; Figure 6c): -0.5686
- C3ar1 liver RNAseq expression ([1]; Figure 6c): -0.04576
- C5ar1 liver RNAseq expression ([1]; Figure 6c): -0.1308
- Ccl9 liver RNAseq expression ([1]; Figure 6c): 1.215
- Cxcl1 liver RNAseq expression ([1]; Figure 6c): 1.2887
- Fbn1 liver RNAseq expression ([1]; Figure 6c): -0.3979
- Fbn2 liver RNAseq expression ([1]; Figure 6c): -1.301
- Nupr1 liver RNAseq expression ([1]; Figure 6c): 0.5866
- Ptges liver RNAseq expression ([1]; Figure 6c): -0.4949
- Rdh11 liver RNAseq expression ([1]; Figure 6c): 0.8089
- Robo1 liver RNAseq expression ([1]; Figure 6c): -0.03152
- Xcr1 liver RNAseq expression ([1]; Figure 6c): -0.1135
- Alg8 liver RNAseq expression ([1]; Figure 7c): 0.5944
- Anxa5 liver RNAseq expression ([1]; Figure 7c): 1.645
- Atp2b2 liver RNAseq expression ([1]; Figure 7c): -0.4202
- Atp7b liver RNAseq expression ([1]; Figure 7c): 0.2148
- Ces3b liver RNAseq expression ([1]; Figure 7c): 2.066
- Creb3l2 liver RNAseq expression ([1]; Figure 7c): 0.1072
- Dhrs9 liver RNAseq expression ([1]; Figure 7c): -0.6021
- Elovl3 liver RNAseq expression ([1]; Figure 7c): 0.433
- Fitm1 liver RNAseq expression ([1]; Figure 7c): -0.3372
- Fmo2 liver RNAseq expression ([1]; Figure 7c): 0.8831
- Fndc5 liver RNAseq expression ([1]; Figure 7c): -0.7212
- Grik5 liver RNAseq expression ([1]; Figure 7c): 0.5888
- Mia2 liver RNAseq expression ([1]; Figure 7c): 0.7875
- Myo5a liver RNAseq expression ([1]; Figure 7c): -0.7959
- Nat8f5 liver RNAseq expression ([1]; Figure 7c): 0.6064
- Nsdhl liver RNAseq expression ([1]; Figure 7c): 0.8949
- Nucb2 liver RNAseq expression ([1]; Figure 7c): 0.4814
- Pdilt liver RNAseq expression ([1]; Figure 7c): 0.5899
- Pkmyt1 liver RNAseq expression ([1]; Figure 7c): 0.09691
- Prom1 liver RNAseq expression ([1]; Figure 7c): -0.03152
- Serpina1e liver RNAseq expression ([1]; Figure 7c): 3.324
- Slc37a2 liver RNAseq expression ([1]; Figure 7c): -0.4559
- Soat1 liver RNAseq expression ([1]; Figure 7c): -0.1079
- Sorl1 liver RNAseq expression ([1]; Figure 7c): -0.8539
- Srd5a2 liver RNAseq expression ([1]; Figure 7c): -0.09691
- Trim59 liver RNAseq expression ([1]; Figure 7c): -0.4949
- Zdhhc2 liver RNAseq expression ([1]; Figure 7c): -0.3468
- Adamts5 liver RNAseq expression ([1]; Figure 5d): -0.4318
- Adamtsl1 liver RNAseq expression ([1]; Figure 5d): -0.9208
- Anxa2 liver RNAseq expression ([1]; Figure 5d): 1.107
- Ckap4 liver RNAseq expression ([1]; Figure 5d): -0.05061
- Col1a1 liver RNAseq expression ([1]; Figure 5d): 0.8745
- Col1a2 liver RNAseq expression ([1]; Figure 5d): 0.934
- Col3a1 liver RNAseq expression ([1]; Figure 5d): 1.043
- Col6a3 liver RNAseq expression ([1]; Figure 5d): 0.1367
- Lgals3 liver RNAseq expression ([1]; Figure 5d): 0.941
- Lpl liver RNAseq expression ([1]; Figure 5d): 1.015
- Ltbp2 liver RNAseq expression ([1]; Figure 5d): -0.2757
- Mmp12 liver RNAseq expression ([1]; Figure 5d): -0.1805
- Nid1 liver RNAseq expression ([1]; Figure 5d): 0.5877
- Nid2 liver RNAseq expression ([1]; Figure 5d): 0.03342
- Npnt liver RNAseq expression ([1]; Figure 5d): -1.222
- Serpine2 liver RNAseq expression ([1]; Figure 5d): 0.143
- Slpi liver RNAseq expression ([1]; Figure 5d): 0.6998
- Tubb4b liver RNAseq expression ([1]; Figure 5d): 1.687
- decrease of the circulating lipid in the HFD group (HFD induced NASH mice; JT003 500 μg kg−1, in words): reverted
- Hepatocytes TG and serum LDL-C contents (HFD induced NASH mice; JT003 500 μg kg−1 i.p. daily 4 weeks, in words): obviously reduced
- ALT level (HFD induced NASH mice; JT003 500 μg kg−1 i.p. daily 4 weeks, vs HFD, in words): reduced
